# Test results published in patent publication US8741923B2, “Oxadiazole fused heterocyclic derivatives useful for the treatment of multiple sclerosis” (Merck Serono SA, priority 2008, dated 2014).
# Molecular target: T1, S1P1 (Homo sapiens (Human), UniProt P21453)
# Assay: Receptor binding assay ([33P]sphingosine 1-phosphate, SPA) on S1P1 membranes
# Conditions: membranes from CHO cells expressing S1P1
# Method: (§1) Receptor binding assay: Membranes were prepared from CHO cells expressing S1P1 or S1P3 for use in ligand and 35S-GTPγS binding studies. Cells were suspended in 50 mM TRIS, pH 7.4, 2 mM EDTA, 250 mM Sucrose (buffer A) and 1× Complete protease inhibitor cocktail (Roche), and disrupted at 4° C. by N2 decompression using a cell disruption bomb (Parr Instrument). Following centrifugation at 1000 RPM for 10 min at 4° C., the supernatant was suspended in buffer A and centrifuged again at 19000 RPM for 60 min at 4° C. The pellet was then suspended in 10 mM HEPES, pH 7.4, 1 mM EDTA, 250 mM Sucrose (Buffer B), and 1× Complete EDTA-free protease inhibitor cocktail and homogenized using a potter. Membranes were flash frozen in liquid N2 and stored at −80° C. [33P]sphingosine 1-phosphate (3000 Ci/mmol; American Radiolabeled Chemicals, Inc.) was added to test compounds in DMSO. Membranes and WGA SPA beads (GE Healthcare) were added to give a final volume of 100 μl in 96-well plates with assay concentrations of 25 μM or 10 μM [33P]sphingosine 1-phosphate (respectively for S1P1 or S1P3), 50 mM HEPES, pH 7.5, 5 mM MgCl2, 100 mM NaCl, 0.4% fatty acid-free BSA, 1-5 μg/well of proteins and 100 μg/well of WGA SPA beads. Binding was performed for 60 min at RT on a shaker and bound radioactivity was measured on a PerkinElmer 1450 MicroBeta counter. Specific binding was calculated by subtracting remaining radioactivity in the presence of 1000-fold excess of unlabeled S1P. Binding data were analyzed using the GraphPad Prism program.
# T1 sequence (P21453 whole entry, species assumed): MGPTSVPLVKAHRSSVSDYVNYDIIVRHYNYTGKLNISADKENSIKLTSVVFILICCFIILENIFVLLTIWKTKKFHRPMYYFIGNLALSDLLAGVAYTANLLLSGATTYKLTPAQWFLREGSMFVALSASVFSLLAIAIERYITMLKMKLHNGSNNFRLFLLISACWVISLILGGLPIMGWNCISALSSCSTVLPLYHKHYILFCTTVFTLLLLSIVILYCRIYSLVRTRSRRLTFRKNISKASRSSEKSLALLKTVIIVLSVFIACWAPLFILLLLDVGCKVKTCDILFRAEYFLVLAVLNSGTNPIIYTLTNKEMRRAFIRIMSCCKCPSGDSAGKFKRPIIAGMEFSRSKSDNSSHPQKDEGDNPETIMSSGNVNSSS
row,Ki,Compound
1,1.1 nM,"COCc1cc(-c2nc(-c3ccc4c(c3)CCN(CCC(=O)O)C4)no2)ccc1-c1ccccc1C [Compound 40, 3-{6-[5-(2-Methoxymethyl-2′-methyl-biphenyl-4-yl)-[1,2,4]oxadiazol-3-yl]-3,4-dihydro-1H-isoquinolin-2-yl}-propionic acid]"
2,0.8 nM,"CC1CCCCN1c1ccc(-c2nc(-c3ccc4c(c3)CNCC4)no2)cc1C#N (stereo not shown) [Compound 12, 2-(2-methylpiperidin-1-yl)-5-[3-(1,2,3,4-tetrahydroisoquinolin-7-yl)-1,2,4-oxadiazol-5-yl]benzonitrile]"
3,0.49 nM,"Cc1ccccc1-c1ccc(-c2nc(-c3ccc4c(c3)CN(CC(=O)O)CC4)no2)cc1C(F)(F)F [Compound 36, [7-{5-[2′-methyl-2-(trifluoromethyl)biphenyl-4-yl]-1,2,4-oxadiazol-3-yl}-3,4-dihydroisoquinolin-2(1H)-yl]acetic acid]"
4,0.8 nM,"CC1CCCCN1c1ccc(-c2nc(-c3ccc4c(c3)CN(CC(=O)O)CC4)no2)cc1C(F)(F)F (stereo not shown) [Compound 38, [7-{5-[4-(2-methylpiperidin-1-yl)-3-(trifluoromethyl)phenyl]-1,2,4-oxadiazol-3-yl}-3,4-dihydroisoquinolin-2(1H)-yl]acetic acid]"
5,0.6 nM,"Cc1ccccc1-c1ccc(-c2nc(-c3ccc4c(c3)CN(CCC(=O)O)CC4)no2)cc1C(F)(F)F [Compound 39, 3-[7-{5-[2′-methyl-2-(trifluoromethyl)biphenyl-4-yl]-1,2,4-oxadiazol-3-yl}-3,4-dihydroisoquinolin-2(1H)-yl]propanoic acid]"
6,0.75 nM,"CC1CCCCN1c1ccc(-c2nc(-c3ccc4c(c3)CN(CCC(=O)O)CC4)no2)cc1C(F)(F)F (stereo not shown) [Compound 37, 3-[7-{5-[4-(2-methylpiperidin-1-yl)-3-(trifluoromethyl)phenyl]-1,2,4-oxadiazol-3-yl}-3,4-dihydroisoquinolin-2(1H)-yl]propanoic acid]"
7,0.23 nM,"COCc1cc(-c2nc(-c3ccc4c(c3)CN(CCC(=O)O)CC4)no2)ccc1-c1ccccc1C [Compound 35, 3-[7-{5-[2-(methoxymethyl)-2′-methylbiphenyl-4-yl]-1,2,4-oxadiazol-3-yl}-3,4-dihydroisoquinolin-2(1H)-yl]propanoic acid]"

# Molecular target: T1, S1P1
# Assay: 35S-GTPγS binding, S1P1 membranes
# Format: biochemical
# Conditions: membranes from CHO cells expressing S1P1
# Method: as §1, with “Membranes and WGA SPA beads (GE Healthcare) were added to give a final volume of 100 μl in 96-well plates with assay concentrations of 25 μM or 10 μM [33P]sphingosine 1-phosphate (respectively for S1P1 or S1P3), 50 mM HEPES, pH 7.5, 5 mM MgCl2, 100 mM NaCl, 0.4% fatty acid-free BSA, 1-5 μg/well of proteins and 100 μg/well of WGA SPA beads. Binding was performed for 60 min at RT on a shaker and bound radioactivity was measured on a PerkinElmer 1450 MicroBeta counter.” left out
# Measurements of 35S-GTPγS Binding:
# After 60 min incubation at 30° C. on a shaker, plates were centrifuged for 10 min at 2000 RPM. […] Triplicate samples were averaged and expressed as % response relative to S1P activation in absence of compound (n=2).
row,EC50,Compound
1,9 nM,"CC1CCCCN1c1ccc(-c2nc(-c3ccc4c(c3)CNCC4)no2)cc1C#N (stereo not shown) [Compound 12, 2-(2-methylpiperidin-1-yl)-5-[3-(1,2,3,4-tetrahydroisoquinolin-7-yl)-1,2,4-oxadiazol-5-yl]benzonitrile]"
2,2.52 nM,"CCc1ccccc1-c1ccc(-c2nc(-c3ccc4c(c3)CN(CCC(=O)O)CC4)no2)cc1COC [Compound 31, 3-[7-{5-[2′-ethyl-2-(methoxymethyl)biphenyl-4-yl]-1,2,4-oxadiazol-3-yl}-3,4-dihydroisoquinolin-2(1H)-yl]propanoic acid]"
3,64 nM,"Cc1cc(-c2nc(-c3ccc4c(c3)CNCC4)no2)cnc1N1CCCC1C (stereo not shown) [Compound 14, 7-{5-[5-methyl-6-(2-methylpyrrolidin-1-yl)pyridin-3-yl]-1,2,4-oxadiazol-3-yl}-1,2,3,4-tetrahydroisoquinoline]"
4,> 20000 nM,"Cc1cc(-c2nc(-c3ccc4c(c3)CN(C(=O)OC(C)(C)C)CC4)no2)cnc1N1CCCC1C (stereo not shown) [Compound 13, tert-butyl 7-{5-[5-methyl-6-(2-methylpyrrolidin-1-yl)pyridin-3-yl]-1,2,4-oxadiazol-3-yl}-3,4-dihydroisoquinoline-2(1H)-carboxylate]"
5,14 nM,"CC1CCCCN1c1ccc(-c2nc(-c3cc(F)c4[nH]cnc4c3)no2)cc1C(F)(F)F (stereo not shown) [Compound 7, 7-fluoro-5-{5-[4-(2-methylpiperidin-1-yl)-3-(trifluoromethyl)phenyl]-1,2,4-oxadiazol-3-yl}-1H-benzimidazole]"
6,2.5 nM,"COCc1cc(-c2nc(-c3ccc4[nH]cnc4c3)no2)ccc1N1CCCCC1C (stereo not shown) [Compound 6, 5-{5-[3-(methoxymethyl)-4-(2-methylpiperidin-1-yl)phenyl]-1,2,4-oxadiazol-3-yl}-1H-benzimidazole]"
7,4.39 nM,"CCc1ccccc1-c1ccc(-c2nc(-c3ccc4c(c3)CN(CC(=O)O)CC4)no2)cc1COC [Compound 30, [7-{5-[2′-ethyl-2-(methoxymethyl)biphenyl-4-yl]-1,2,4-oxadiazol-3-yl}-3,4-dihydroisoquinolin-2(1H)-yl]acetic acid]"
8,3030 nM,"Cc1ccccc1-c1ccc(-c2nc(-c3ccc4c(ccn4CC(=O)O)c3)no2)cc1C [Compound 18, {5-[5-(2,2′-dimethylbiphenyl-4-yl)-1,2,4-oxadiazol-3-yl]-1H-indol-1-yl}acetic acid]"
9,10 nM,"CC1CCCCN1c1ccc(-c2nc(-c3ccc4[nH]cnc4c3)no2)cc1C#N (stereo not shown) [Compound 2, 5-[3-(1H-benzimidazol-5-yl)-1,2,4-oxadiazol-5-yl]-2-(2-methylpiperidin-1-yl)benzonitrile]"
10,0.89 nM,"CCC1CCCCN1c1ccc(-c2nc(-c3ccc4c(c3)CN(CCC(=O)O)CC4)no2)cc1COC (stereo not shown) [Compound 33, 3-[7-{5-[4-(2-ethylpiperidin-1-yl)-3-(methoxymethyl)phenyl]-1,2,4-oxadiazol-3-yl}-3,4-dihydroisoquinolin-2(1H)-yl]propanoic acid]"
11,38.1 nM,"COCc1cc(-c2nc(-c3cc(C)c4[nH]cnc4c3)no2)ccc1-c1ccccc1C [Compound 26, 5-{5-[2-(methoxymethyl)-2′-methylbiphenyl-4-yl]-1,2,4-oxadiazol-3-yl}-7-methyl-1H-benzimidazole]"
12,0.5 nM,"COCc1cc(-c2nc(-c3cc(F)c4[nH]cnc4c3)no2)ccc1-c1ccccc1C [Compound 9, 7-fluoro-5-{5-[2-(methoxymethyl)-2′-methylbiphenyl-4-yl]-1,2,4-oxadiazol-3-yl}-1H-benzimidazole]"
13,1330 nM,"Cc1ccccc1-c1ccc(-c2nc(-c3ccc4c(ccn4C)c3)no2)cc1C [Compound 17, 5-[5-(2,2′-dimethylbiphenyl-4-yl)-1,2,4-oxadiazol-3-yl]-1-methyl-1H-indole]"
14,23 nM,"C[C@@H]1CCCCN1c1ccc(-c2nc(-c3ccc4[nH]cnc4c3)no2)cc1C(F)(F)F [Compound 28, 5-{5-[4-[(2R)-2-methylpiperidin-1-yl]-3-(trifluoromethyl)phenyl]-1,2,4-oxadiazol-3-yl}-1H-benzimidazole]"
15,468 nM,"COc1cc2[nH]c(C(=O)O)cc2cc1-c1noc(-c2ccc(N3CCCCC3C)c(C(F)(F)F)c2)n1 (stereo not shown) [Compound 21, 6-methoxy-5-{5-[4-(2-methylpiperidin-1-yl)-3-(trifluoromethyl)phenyl]-1,2,4-oxadiazol-3-yl}-1H-indole-2-carboxylic acid]"
16,1270 nM,"CC1CCCCN1c1ccc(-c2nc(-c3ccc4c(ccn4C)c3)no2)cc1[N+](=O)[O-] (stereo not shown) [Compound 19, 1-methyl-5-{5-[4-(2-methylpiperidin-1-yl)-3-nitrophenyl]-1,2,4-oxadiazol-3-yl}-1H-indole]"
17,30.8 nM,"COCc1cc(-c2nc(-c3ccc4cc(C(=O)O)[nH]c4c3)no2)ccc1-c1ccccc1C [Compound 32, 6-{5-[2-(methoxymethyl)-2′-methylbiphenyl-4-yl]-1,2,4-oxadiazol-3-yl}-1H-indole-2-carboxylic acid]"
18,7 nM,"Cc1cc(-c2noc(-c3ccc(N4CCCCC4C)c(C(F)(F)F)c3)n2)cc2nc[nH]c12 (stereo not shown) [Compound 8, 7-methyl-5-{5-[4-(2-methylpiperidin-1-yl)-3-(trifluoromethyl)phenyl]-1,2,4-oxadiazol-3-yl}-1H-benzimidazole]"
19,3 nM,"C[C@H]1CCCCN1c1ccc(-c2nc(-c3ccc4[nH]cnc4c3)no2)cc1C(F)(F)F [Compound 29, 5-{5-[4-[(2S)-2-methylpiperidin-1-yl]-3-(trifluoromethyl)phenyl]-1,2,4-oxadiazol-3-yl}-1H-benzimidazole]"
20,42 nM,"CC1CCCCN1c1ccc(-c2nc(-c3ccc4[nH]ccc4c3)no2)cc1C#N (stereo not shown) [Compound 23, 5-[3-(1H-indol-5-yl)-1,2,4-oxadiazol-5-yl]-2-(2-methylpiperidin-1-yl)benzonitrile]"
21,1.93 nM,"CCC1CCCCN1c1ccc(-c2nc(-c3ccc4c(c3)CN(CC(=O)O)CC4)no2)cc1COC (stereo not shown) [Compound 34, [7-{5-[4-(2-ethylpiperidin-1-yl)-3-(methoxymethyl)phenyl]-1,2,4-oxadiazol-3-yl}-3,4-dihydroisoquinolin-2(1H)-yl]acetic acid]"
